Measured values reported in US8530179B2, “Electrochemical methods of detecting cancer with 4-aminophenyl phosphate” (Ramot at Tel-Aviv University Ltd, priority 2007, dated 2013).

System: HT-29 colon cancer cells
Experiment: Amperometric measurement of induced alkaline phosphatase activity in HT-29 cells on the electrochemical array chip (substrate p-APP, 220 mV)
Assay type: cell-based, human
Conditions: for induced alkaline phosphatase enzymatic activity (amperometric current): exposed for 96 hours, substrate PAPP, 220 mV
Method: HT-29 human colon cancer cells were grown in DMEM medium in the presence of fetal bovine serum at 37° C. in 95% air, 5% CO2 for 3 days prior to butyrate treatment. Butyrate at different concentrations was added to the HT-29 cell cultures. Concentrations applied were: 0, 0.078, 0.156, 0.3125, 0.625, 1.25, 2.5, 5 and 10 mM. Optimal butyrate concentration, LC50 and viability were calculated accordingly. The measurements were performed in PBS with the intact cells and without additional treatment of the cancer cells such as lysis.
BA (Sigma, Israel) ranging between 0.08-10 mM were introduced to HT-29 colon cancer cells and incubated for 72 h for optimization. BA at a constant concentration of 2.5 mM was applied in all electrochemical experiments. BA derivatives, butyroylmethyl-diethyl phosphate, and pivaloyloxymethyl butyrate, were synthesized as described [Rephaeli A, Zhuk R, Nudelman A, 2000, Drug Develop. Res. Vol 50:379-391]. Butyroylmethyl-diethyl phosphate was solubilized in PBS and pivaloyloxymethyl butyrate in DMSO followed by dilution with medium to a final DMSO concentration of ≦0.1%. The prodrugs were then introduced to the cells at a constant concentration of 50 μM and incubated for 96 h at 37° C. in 95% air, 5% CO2 conditions. Following incubation with the differentiation agents, viable cells were counted by tripa blue exclusion and tested for viability and LC50 calculations. Prior to all electrochemical measurement, cells were centrifuged and diluted in PBS. All measurements were performed in PBS. The influence of BA, pivaloyloxymethyl butyrate and butyroylmethyl-diethyl phosphate were examined by measuring the enzymatic activity of alkaline phosphatase.
Amperometric enzyme measurements were performed with the electrochemical substrate, p-APP. The enzymatic reaction product, aminophenol (p-AP), is oxidized at the gold working electrode at 220 mV and the generated current was measured. Eight-channeled 100 nL volume electrochemical chambers were loaded with HT-29 cancer cells, that were treated with BA or its derivatives. Cells were placed into the electrochemical chambers and the substrate was added to 1 mg/ml final concentration at a total volume of 100 nL. The generated current was measured and the number of cells was counted under the microscope. The correlation between cell number and current density was analyzed.
HT-29 colon cancer cells were exposed for 96 hours to various differentiation therapy agents and the induced alkaline phosphatase activity was measured. […]
In order to further examine the sensitivity of the biochip, increasing numbers of HT-29 colon cancer cells were incubated with butyroylmethyl-diethyl phosphate for different lengths of time. The amount of endogenous alkaline phosphatase was measured using the biochip of the present invention.

| Structure (SMILES) | induced alkaline phosphatase enzymatic activity (amperometric current) (2.5 mM) | induced alkaline phosphatase enzymatic activity (amperometric current) (50 μM) | effect on cancer cells (alkaline phosphatase current signal) versus incubation time (eight, seventy eight and ninety six hour treatment, increasing cell numbers) |
| --- | --- | --- | --- |
| CCCC(=O)O [BA, Butyric acid] | induced enzymatic activity of alkaline phosphatase |  |  |
| CCCC(=O)OCOP(=O)(OCC)OCC [butyroylmethyl-diethyl phosphate] |  | induced enzymatic activity of alkaline phosphatase | increased as incubation time increased |
| CCCC(=O)OCOC(=O)C(C)(C)C [pivaloyloxymethyl butyrate] |  | did not induce any enzyme activity |  |
